Assays:
[1] = system: APESV; assay: greenhouse pre-emergence herbicidal test; assay type: in vivo, Apera spica-venti; settings: pre-emergence method, application rate 0.250 kg/ha, scale from 0 to 100
Excerpt: (§1) The seeds of the test plants were sown separately for each species. For the pre-emergence treatment, the active ingredients, which had been suspended or emulsified in water, were applied directly after sowing by means of finely distributing nozzles. The containers were irrigated gently to promote germination and growth and subsequently covered with transparent plastic hoods until the plants had rooted. This cover caused uniform germination of the test plants, unless this had been impaired by the active ingredients. Depending on the species, the plants were kept at 10-25° C. or 20-35° C., respectively. The test period extended over 2 to 4 weeks. During this time, the plants were tended, and their response to the individual treatments was evaluated. Evaluation was carried out using a scale from 0 to 100. 100 means no emergence of the plants, or complete destruction of at least the aerial moieties, and 0 means no damage, or normal course of growth. A moderate herbicidal activity is given at values of at least 60, a good herbicidal activity is given at values of at least 70, and a very good herbicidal activity is given at values of at least 85. The plants used in the greenhouse experiments were of the following species: [table]

[2] = system: AMARE; assay: greenhouse pre-emergence herbicidal test; assay type: in vivo, Amaranthus retroflexus; settings: pre-emergence method, application rate 0.250 kg/ha, scale from 0 to 100
Excerpt: as §1

CC(C)(F)c1nc(N)nc(Nc2c(F)cccc2OC2CCCC2)n1 [Example 1, N2-[2-(Cyclopentoxy)-6-Fluoro-Phenyl]-6-(1-Fluoro-1-Methyl-Ethyl)-1,3,5-Triazine-2,4-Diamine]
herbicidal activity against APESV [1]: good (a good herbicidal activity is given at values of at least 70)
herbicidal activity against AMARE [2]: very good (a very good herbicidal activity is given at values of at least 85)

From patent US10941122B2, “Diaminotriazine derivatives as herbicides” (BASF SE, priority 2014, dated 2021)
